Data set [1] can be described thus: Stability of the formulation at 40° C. (dynamic light scattering). The class given is physicochemical. The note with it: in DMSO. Here is the method: The stability of the formulation was determined using dynamic light scattering (DLS) to measure the mean size and standard deviation, both of which remained consistent. The experiments were repeated after the indicated periods, and the outcome of compound 1 photodynamic therapy was essentially the same in terms of cell killing.

For another data set, the system named is E. coli. The data set is described as follows: Treatment with compound 1 and PMB at fixed concentrations, with and without white light. It counts as cell-based. The text has this:
FIG. 54 is an example of the treatment of E. coli with compound 1 and PMB at fixed concentrations with and without irradiation using white light (λ).

Data set [2] has as its system U-87 MG (human brain gliobastoma). The data set is described as follows: Light-activated killing of cell lines (IC50 with/without light). It counts as cell-based. On the procedure: (§1) TABLE 15 depicts the IC50 of compounds in the presence or absence of light for human cell lines. The cell lines used were HeLa (human cervical adenocarcinoma), U-87 MG (human brain gliobastoma), MES-SA (human uterine sarcoma), MES-SA/D×5 (human uterine sarcoma grown in presence of doxorubicin), NCI-H441 (human lung papillary adenocarcinoma), A549 (human lung carcinoma), WI-38 (human embryonic lung normal), MCF7 (human breast adenocarcinoma), SW1088 (human brain astrocytoma), B16F10 (mouse skin melanoma), NIH-3T3 (mouse fibroblast), and Jurkat (human lymphoblastoma). “1-Sol” in TABLE 15 was generated by dissolving compound 1 and potassium hydroxide at a 1:1 ratio in a DMSO/water solution. The cells were irradiated with continuous white light using a LumaCare™ light source for 2 minutes at a distance of 6.5 cm from the cells.

Data set [3] concerns A549 (human lung carcinoma). Described as above. It counts as cell-based. Here is the method: as §1
Data set [4] deals with MES-SA (human uterine sarcoma). Described as above. It counts as cell-based. Here is the method:
as §1

Data set [5] concerns Jurkat (human lymphoblastoma). Described as above. The class given is cell-based. Here is the method: as §1
The subject of data set [6] is WI-38 (human embryonic lung normal). The data set is described as above. It counts as cell-based. Here is the method: as §1
The test system of data set [7] is MES-SA/Dx5 (human uterine sarcoma grown in presence of doxorubicin). Described as above. It counts as cell-based. On the procedure: as §1
Data set [8] relates to NCI-H441 (human lung papillary adenocarcinoma). The description is as above. The class given is cell-based. Here is the method:
as §1

Data set [9] has as its system MCF7 (human breast adenocarcinoma). Described as above. The class given is cell-based. Here is the method: as §1
The subject of data set [10] is B16F10 (mouse skin melanoma). Described as above. It counts as cell-based. Here is the method:
as §1

Another data set has as its system MCF7A. The data set is described as above. It counts as cell-based. Here is the method:
as §1

Data set [11] concerns SW1088 (human brain astrocytoma). Described as above. The class given is cell-based. On the procedure:
as §1

In another data set the test system is Gram-positive bacteria. Nature of the data set: Bacterial patterning (chessboard mask) with light and compound 1. The class given is cell-based. Here is the method:
A chessboard mask was then placed on top of the agar plate. […] The agar plate was then inoculated with bacteria and incubated overnight at 37° C.

Another data set has as its system VRE (ATCC No. 51299). Nature of the data set: Light-activated killing, colony counts. The class given is cell-based, Enterococcus faecalis. The note with it: for Dark Toxicity: no light; for Light Toxicity: white light 2 minutes. On the procedure: Dose-dependent effects of treating bacteria with compound 1 and irradiation with white light were assessed by treating 10^8 CFU/mL of cells with compound 1, followed by irradiation with white light for 2 minutes. Compound 1 was added at a specific concentration to 1 mL of a 10^8 CFU/mL suspension of the respective bacterial cells, and the cells were incubated at 37° C. for approximately 45 minutes on a rotary shaker at 150 rpm. 0.5 mL of the cell suspension was removed and placed into the wells of a sterile ceramic drop plate, and then the cells were irradiated with white light from a Lumacare™ LC 122A light source for 2 minutes at a distance of approximately 3 cm. The time and distance of the light application delivered about 85 J/cm^2 of 400-700 nm light to the sample. After being irradiated, ten-fold dilutions were made of each cell sample. The dilutions were drip-streaked onto a tryptic soy agar (TSA) plate and incubated at 37° C. for 18-24 hours. Enumeration of bacteria was determined from the dilution, which produced a drip-streak containing approximately 30-300 colonies. After counting the colonies, the CFU/mL was calculated by applying the respective dilution factor and a factor of 100 to account for the 10 μL of sample taken. Appropriate controls were prepared, including cells with no treatment, cells with only compound 1 added, and cells only treated with light.
The error bars in FIG. 11 represent the variations between three replicate determinations.

The subject of the next data set is VRE (ATCC 51299). Nature of the data set: Synergy with antibiotics against VRE. The class given is cell-based, Enterococcus faecalis. On the procedure:
For these experiments, overnight cultures of VRE were diluted to about 5×10^5 CFU/mL in TSB. Then, 1 mL of the diluted broth suspension was added to a borosilicate glass culture tube. After appropriate volumes of the compounds were added to the broth suspensions, the samples were mixed using a vortex mixer, and an appropriate volume of an antibiotic was added to the samples. The samples were mixed using a vortex mixer and incubated for 18 hours at 37° C. on a rotary shaking incubator. After 18 hours, the test cultures were diluted ten-fold, and 10 μL of each dilution was drip-streaked onto a TSA plate and incubated for 18 hours at 37° C. Colony counts were then performed and the CFU/mL values were calculated.
TABLE 24 details the MICs of common antibiotics against VRE. In a 12×75 mm borosilicate glass culture tube, 1 mL of cell suspension was added. Then, compound 7 was added to the cells, and the samples were mixed using a vortex mixer. […] The samples were incubated overnight at 37° C. on a rotary shaking incubator at 100 rpm. Inhibition observed visually compared to each individual treatment was considered synergistic.

Where [12] appears, read: 2 min, white light 2 minutes, read-out: Compound + light IC50.
Setting [13] is: no light, read-out: Compound IC50.

In brackets after ≈: the same amount, converted by molar mass. Where two headings read alike, the source gives them in different places.

As a reminder, the IC50 is the concentration that inhibits the measured activity by half. By MIC is commonly meant the lowest concentration that inhibits growth of the organism. A high value points to a less susceptible organism. `Clc1ccc(/C=C/c2[nH]c3ccccc3c2/C=C/c2ccc(Cl)cc2)cc1` [Compound 1]: in data set [1], the “Stability at 40° C.” value is reported as greater than 2 months. Also, in the data set on E. coli (FIG. 54), the “cell killing with compound 1, PMB and white light” value is “PMB was more efficacious in cell killing when co-administered with compound 1 and light”. Moreover, the “killing by combination of compound 1 and PMB (CFU)” value in the data set on E. coli (compared to either agent alone, FIG. 17) is “effective at killing E. coli”. Also, the concentration for half-maximal inhibition (IC50) is 450 nM in data set [2] (2 min, U-87 MG (spheroids), white light 2 minutes, read-out: Compound + light IC50); 560 ± 20 nM in [2] (setting [12]); greater than 40000 nM in data set [2] (U-87 MG (spheroids), no light, read-out: Compound IC50); 44600 ± 3680 nM in data set [2] (setting [13]); 840 ± 320 nM in data set [3] (setting [12]); 17400 ± 1520 nM in data set [3] (setting [13]). Moreover, the IC50 is 360 ± 50 nM in data set [4] (setting [12]); 42700 ± 3400 nM in data set [4] (setting [13]); 25 nM in [5] (setting [12]); greater than 10000 nM in [5] (setting [13]); 330 ± 80 nM in [6] (setting [12]); 63400 ± 5480 nM in data set [6] (setting [13]). Further, the concentration for half-maximal inhibition (IC50) in data set [7] (Homo sapiens, MES-SA/Dx5, 2 min, MES-SA/Dx5 (no doxorubicin), white light 2 minutes, read-out: Compound + light IC50) was 720 ± 70 nM; in data set [7] (Homo sapiens, MES-SA/Dx5, 2 min, MES-SA/Dx5 + doxorubicin, white light 2 minutes, read-out: Compound + light IC50), 440 ± 100 nM; in [7] (Homo sapiens, MES-SA/Dx5, MES-SA/Dx5 + doxorubicin, no light, read-out: Compound IC50), 38800 ± 2760 nM; in [7] (MES-SA/Dx5 (no doxorubicin), white light 2 minutes, read-out: Compound + light IC50), 620 ± 30 nM; in data set [8] (setting [12]), 760 ± 70 nM; in [8] (setting [13]), 50700 ± 4370 nM. Also, the 50% inhibitory concentration (IC50) was 330 ± 40 nM in data set [9] (setting [12]); 17800 ± 220 nM in data set [9] (setting [13]); 410 ± 220 nM in data set [10] (B16-F10, 2 min, white light 2 minutes, read-out: Compound + light IC50); 18700 ± 990 nM in data set [10] (B16-F10, no light, read-out: Compound IC50); 400 ± 10 nM with MCF7A (setting [12]); 24500 ± 200 nM in the data set on MCF7A (setting [13]). Further, the values for the IC50 in [11] (setting [12]) and in data set [11] (setting [13]) were 470 ± 30 nM and greater than 50000 nM, respectively. In the data set on Gram-positive bacteria, this molecule yielded a minimum inhibitory concentration (MIC) of 400 µM (≈ 156 µg/mL). Further, the “bacterial growth on irradiated agar plate” value in the data set on Gram-positive bacteria (agar with 20 μM compound 1, white light through chessboard mask, FIG. 5) was “inhibition of bacterial growth in the illuminated parts of the agar plate”. The “Dark Toxicity” value is 6.50 × 10^8 ± 5.40 × 10^8 CFU/mL with VRE (ATCC No. 51299) (0.1 μM), 6.50 × 10^8 ± 1.32 × 10^8 CFU/mL in the data set on VRE (ATCC No. 51299) (0.5 μM), 6.20 × 10^8 ± 2.62 × 10^8 CFU/mL in the data set on VRE (ATCC No. 51299) (1.0 μM) and 4.55 × 10^5 ± 8.87 × 10^5 CFU/mL in the data set on VRE (ATCC No. 51299) (5.0 μM). Further, the “Light Toxicity” value in the data set on VRE (ATCC No. 51299) (0.1 μM) is recorded as 7.00 × 10^2 ± 8.19 × 10^2 CFU/mL; in the data set with VRE (ATCC No. 51299) (0.5 μM), 2.67 × 10^2 ± 4.62 × 10^2 CFU/mL; with VRE (ATCC No. 51299) (1.0 μM) it was “None detected (<100 CFU/mL)”; in the data set on VRE (ATCC No. 51299) (5.0 μM) it was “None detected (<100 CFU/mL)”.

Take `Brc1ccc(/N=N/c2c[nH]c3ccccc23)cc1` [Compound 8]: the “killing of VRE in conjunction with antibiotics” value in the data set on VRE (ATCC 51299) (7.5 μM of compound 8 with vancomycin, tetracycline, or norfloxacin, FIG. 43) is recorded as “more effective at killing VRE”.

For the molecule `Clc1ccc(/N=N/c2c[nH]c3ccccc23)cc1` [Compound 9], the “killing of VRE in conjunction with antibiotics” value with VRE (ATCC 51299) (75 μM of compound 9 with tetracycline or norfloxacin, FIG. 44) is “more effective at killing VRE”.

Values taken from patent publication US9834514B2, “Antibiotic sensitivity-restoring and photosensitive agents” (New Mexico Tech Research Foundation, priority 2015, dated 2017).
